The text below walks through data of EPA's aquatic toxicity sets.

This series relates to Tetrahymena pyriformis. As to the kind of experiment: 48 h IGC50 (-log10 mol/L); higher = more toxic.
For the molecule `CCOc1ccc(C(=O)OC)cc1`, the “48 h IGC50 (-log10 mol/L)” value was 3.58. The result for `Cc1cccc2ccccc12` reads 3.74; that for `N#Cc1cc(Br)c(O)c(Br)c1`, 4.16. The result for `NCc1ccc(Cl)cc1` reads 3.16; that for `ClCCCc1ccccc1`, 3.5. Consider `N#Cc1ccc(Cl)cc1`, for which the “48 h IGC50 (-log10 mol/L)” value was 3. The result for `Oc1c(F)c(F)c(F)c(F)c1F` reads 4.63. Take `CC(C)(C)OC=O`: the “48 h IGC50 (-log10 mol/L)” value was 1.63. The result for `CC(Cl)C#N` (stereo not given) reads 2.14.

Consider `C/C=C/c1ccc(O)c(OC)c1`, for which the “48 h IGC50 (-log10 mol/L)” value is 3.75.

As to `CC(C)(CN)CO`, the “48 h IGC50 (-log10 mol/L)” value is 2.08.

As for `CC(C)CCC#N`, the “48 h IGC50 (-log10 mol/L)” value turned out to be 2.21. With `Cc1ccc([N+](=O)[O-])cc1O`, the “48 h IGC50 (-log10 mol/L)” value came out at 3.66. The result for `Brc1ccoc1` reads 2.52. In the case of `CCCCCCCCCCOC(C)=O` it was 4.88; in that of `C#CCC(O)CC` (stereo not given), 1.6; in that of `Cc1cc(C)c(O)c(N)c1`, 3.89. In the case of `O=Cc1c(O)cc(O)cc1O` it was 3.13; in that of `CCC#CC(O)CC` (stereo not given), 2.97; in that of `O=Cc1c(O)ccc2ccccc12`, 4.32. Take `CCOC(=O)c1ccccn1`: the “48 h IGC50 (-log10 mol/L)” value came out at 2.08. As to `CCCCC(Br)CBr` (stereo not given), the “48 h IGC50 (-log10 mol/L)” value stood at 4.15. The result for `C=CCOC(=O)C=C` reads 3.68; that for `CCCCCCCCCCC=O`, 4.69. For `O=C(O)c1cccc(Cl)c1Cl`, the “48 h IGC50 (-log10 mol/L)” value came out at 2.59. Regarding `O=Cc1ccc(Br)cc1`, the “48 h IGC50 (-log10 mol/L)” value worked out at 3.59. For `CC(C)C(Br)C(=O)O` (stereo not given), the “48 h IGC50 (-log10 mol/L)” value is 2.45.

Consider `CC(C)c1ccc(Br)cc1`, for which the “48 h IGC50 (-log10 mol/L)” value turned out to be 3.85. In the case of `OCCc1ccc(O)cc1` it was 2.17. Turning to `CCCCCC/C=C/C=O`, the “48 h IGC50 (-log10 mol/L)” value came out at 4.6. The result for `O=C(O)CCCCCC(=O)O` reads 2.42; that for `Nc1cc(F)c([N+](=O)[O-])cc1[N+](=O)[O-]`, 4.69; that for `O=Cc1ccc(F)cc1`, 2.87.

With `S=C=NCCCc1ccccc1`, the “48 h IGC50 (-log10 mol/L)” value is 5.54. `NCc1ccccc1`: the “48 h IGC50 (-log10 mol/L)” value stood at 2.76. In the case of `SC1CCCCC1` it was 3.

Turning to `O=C(CBr)c1ccc2ccc3cccc4ccc1c2c34`, the “48 h IGC50 (-log10 mol/L)” value amounted to 5.39.

As to `CCCCOC(=O)c1ccc(O)cc1`, the “48 h IGC50 (-log10 mol/L)” value came out at 4.33. The result for `Cc1ccc(C)c(N)c1` reads 2.67; that for `COc1ccc(N)cc1O`, 3.45; that for `CC(C)(C)c1ccc(O)c(N)c1`, 3.37. The result for `CCCCCCOC(C)=O` reads 2.99; that for `CCCCCOc1ccc(O)cc1`, 4.36; that for `COC(=O)C(C)(C)C`, 1.72.

With `NC(=O)c1cccc([N+](=O)[O-])c1`, the “48 h IGC50 (-log10 mol/L)” value is 2.81. As for `OC1CCCCC1`, the “48 h IGC50 (-log10 mol/L)” value amounted to 2.23.

In the case of `O=[N+]([O-])c1cc(Br)c(O)c(Br)c1`, the “48 h IGC50 (-log10 mol/L)” value stood at 4.36. With `N#Cc1cccc(Cl)c1`, the “48 h IGC50 (-log10 mol/L)” value is 2.94. In the case of `Oc1ccc(C(F)(F)F)cc1` it was 3.62; in that of `OCC(O)CBr` (stereo not given), 1.79; in that of `CC(=O)c1ccc[nH]1`, 2.09. For the molecule `CCCC(O)CC` (stereo not given), the “48 h IGC50 (-log10 mol/L)” value was 2.15. The result for `CCOC(=O)CI` reads 5.92; that for `CCCNCCO`, 1.32; that for `CCCOc1ccc(O)cc1`, 3.52. The result for `C=CC(=O)OCCCCC` reads 3.54.

Regarding `OCCCCCCCl`, the “48 h IGC50 (-log10 mol/L)” value amounted to 2.73. The result for `CCCCCC(=O)Cl` reads 3.34; that for `Oc1c(-c2ccccc2)cccc1-c1ccccc1`, 5.11; that for `Oc1cc(Cl)c(O)cc1Cl`, 4.81. In the case of `COc1cccc(Cl)c1` it was 3.29; in that of `Cc1cccc(C=O)c1`, 3.08.

In the case of `CCC(C)(C)N`, the “48 h IGC50 (-log10 mol/L)” value was determined as 2.3. In the case of `Cc1cccc(C)n1` it was 2.19.

Regarding `N#CCc1ccc(O)cc1`, the “48 h IGC50 (-log10 mol/L)” value came to 2.62. The result for `CCc1ccc(Br)cc1` reads 3.67; that for `S=C=NCc1cccc2ccccc12`, 6.06. For the molecule `C=CCOC(=O)CC`, the “48 h IGC50 (-log10 mol/L)” value is 2.12. The result for `O=C(O)CCCCCBr` reads 3.03. In the case of `C=COC(=O)C(=C)C` it was 2.38; in that of `COC(=O)c1cc(O)cc(O)c1`, 2.86; in that of `CC#CCOC(C)=O`, 2.12. Take `Cc1ccc(O)cc1C`: the “48 h IGC50 (-log10 mol/L)” value turned out to be 3.12.

Take `CCCCCCC#CC(=O)OC`: the “48 h IGC50 (-log10 mol/L)” value stood at 4.32. In the case of `CCC#CC(C)=O` it was 4.32.

As to `CCc1ccc(-c2ccccc2)cc1`, the “48 h IGC50 (-log10 mol/L)” value is 4.97.

With `NC(=S)c1ccccc1`, the “48 h IGC50 (-log10 mol/L)” value was determined as 3.09. The result for `c1cnc2c(c1)ccc1ncccc12` reads 4.07; that for `O=[N+]([O-])c1ccc(/C=N/O)cc1`, 3.68; that for `C=CC(=O)OC(C)(C)C`, 3.27.

Turning to `C#CC(O)CC` (stereo not given), the “48 h IGC50 (-log10 mol/L)” value was 1.82. The result for `O=[N+]([O-])c1cc(Br)cc(F)c1O` reads 4.62. In the case of `O=C(/C=C/c1ccccc1)N=C=S` it was 3.29; in that of `CC(C)CC(=O)O`, 2.66; in that of `Cc1c(C)c(O)c(C)c(C)c1O`, 4.28. On to `Brc1ccncc1.Cl`, for which the “48 h IGC50 (-log10 mol/L)” value was 2.44. The result for `CCOC(=O)C[C@@H](C)O` reads 1.47; that for `Cc1ccccc1C#N`, 2.76. In the case of `O=[N+]([O-])c1cccc(O)c1` it was 3.51; in that of `c1ccc(Cc2cccnc2)cc1`, 3.68; in that of `Cc1cc(O)c([N+](=O)[O-])cc1Cl`, 4.63. The result for `NC(=O)CCCl` reads 1.41.

In the case of `CC#CCO`, the “48 h IGC50 (-log10 mol/L)” value came out at 2.13. In the case of `CS(C)=O` it was 0.548. The result for `CCC#CCC(O)CC` (stereo not given) reads 2.62; that for `C=CCCO`, 1.3; that for `OCc1ccccc1-c1ccccc1`, 3.82. The result for `CC(C)C=CC=O` reads 3.82; that for `CCNC(C)=O`, 1.3. `CCOC(=O)C=C(C)C`: the “48 h IGC50 (-log10 mol/L)” value came out at 2.52.
